Reference: ChEMBL document CHEMBL5385855, “Design and synthesis of hederagenin derivatives modulating STING/NF-κB signaling for the relief of acute liver injury in septic mice” (2023)
Activity calls are given as the source filed them. The rule behind the calls is not given here.

What was measured:
[1] = test system: RAW264.7; assay: Cytotoxicity against mouse RAW264.7 cells assessed as reduction in cell viability at 40 uM incubated for 4 hrs by MTT assay; type: functional
[2] = test system: RAW264.7; assay: Antiinflammatory activity in mouse RAW264.7 cells assessed as inhibition of LPS-induced NO production at 20 uM preincubated with compound for 2 hrs followed by LPS stimulation and measured after 24 hrs by Griess reagent based analysis; type: functional, cell-based; conditions: time 26.0 hrs
[3] = test system: Mus musculus; assay: Antiinflammatory activity against LPS-induced liver injury BALB/c mouse model assessed as reduction in TNF-alpha level in liver at 1 to 9 mg/kg, ip pretreated with compound for 3 days followed by LPS-induction and measured after 12 hrs; type: functional, organism-based; conditions: dose 1-9 mg/kg, time 3.5 day
[4] = target: T1, Stimulator of interferon genes protein (Mus musculus) (UniProt Q3TBT3); assay: Activation of STING signaling pathway in mouse RAW264.7 cells assessed as inhibition of LPS-induced IRF3 phosphorylation at 2.5 to 10 uM pretreated with compound for 2 hrs followed by LPS-induction and measured after 6 hrs by Western blot analysis; type: cell-based; conditions: filed as activator, dose 2.5-10 µM, time 8.0 hrs
T1 sequence (whole entry): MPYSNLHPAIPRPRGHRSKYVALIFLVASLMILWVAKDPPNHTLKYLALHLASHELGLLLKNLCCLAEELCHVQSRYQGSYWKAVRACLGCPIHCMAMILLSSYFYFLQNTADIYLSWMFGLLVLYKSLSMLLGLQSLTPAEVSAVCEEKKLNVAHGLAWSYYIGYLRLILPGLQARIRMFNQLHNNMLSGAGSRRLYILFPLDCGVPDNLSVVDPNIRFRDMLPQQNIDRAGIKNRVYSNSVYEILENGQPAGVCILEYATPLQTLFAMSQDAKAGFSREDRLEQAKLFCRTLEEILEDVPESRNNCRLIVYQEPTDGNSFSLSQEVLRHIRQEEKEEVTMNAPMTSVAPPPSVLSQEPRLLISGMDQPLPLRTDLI

[5] = test system: Mus musculus; assay: Antiinflammatory activity against LPS-induced liver injury BALB/c mouse model assessed as reduction in IL-6 level in liver at 1 to 9 mg/kg, ip pretreated with compound for 3 days followed by LPS-induction and measured after 12 hrs; type: functional, organism-based; conditions: dose 1-9 mg/kg, time 3.5 day
[6] = target: T1, Stimulator of interferon genes protein (Mus musculus); assay: Activation of STING signaling pathway in mouse RAW264.7 cells assessed as inhibition of LPS-induced IkappaB-alpha phosphorylation at 2.5 to 10 uM pretreated with compound for 2 hrs followed by LPS-induction and measured after 6 hrs by Western blot analysis; type: cell-based; conditions: filed as activator, dose 2.5-10 µM, time 8.0 hrs
[7] = test system: RAW264.7; assay: Antiinflammatory activity in mouse RAW264.7 cells assessed as reduction in LPS-induced IL-6 level at 20 uM preincubated with compound for 2 hrs followed by LPS stimulation and measured after 6 hrs by ELISA analysis; type: functional, cell-based; conditions: time 8.0 hrs
[8] = test system: Mus musculus; assay: Antiinflammatory activity against LPS-induced liver injury BALB/c mouse model assessed as reduction in hemorrhage severity at 1 to 9 mg/kg, ip pretreated with compound for 3 days followed by LPS-induction and measured after 12 hrs by H and E staining based analysis; type: functional, organism-based; conditions: dose 1-9 mg/kg, time 3.5 day
[9] = test system: Mus musculus; assay: Antiinflammatory activity against LPS-induced liver injury BALB/c mouse model assessed as reduction in ALP level in serum at 1 to 9 mg/kg, ip pretreated with compound for 3 days followed by LPS-induction and measured after 12 hrs; type: functional, organism-based; conditions: dose 1-9 mg/kg, time 3.5 day
[10] = test system: RAW264.7; assay: Antiinflammatory activity in mouse RAW264.7 cells assessed as inhibition of LPS-induced iNOS expression at 20 uM preincubated with compound for 2 hrs followed by LPS stimulation and measured after 6 hrs by ELISA analysis; type: functional, cell-based; conditions: time 8.0 hrs
[11] = test system: Mus musculus; assay: Antiinflammatory activity against LPS-induced liver injury BALB/c mouse model assessed as reduction in ALT level in serum at 1 to 9 mg/kg, ip pretreated with compound for 3 days followed by LPS-induction and measured after 12 hrs; type: functional, organism-based; conditions: dose 1-9 mg/kg, time 3.5 day
[12] = test system: Mus musculus; assay: In-vivo inhibition of STING/IRF3/NF-kappaB activation in liver septic mouse model assessed as reduction in p65 phosphorylation at 1 to 9 mg/kg, ip pretreated with compound for 3 days followed by LPS-induction and measured after 2 hrs by Western blotting analysis; type: functional, organism-based; conditions: dose 1-9 mg/kg, time 74.0 hrs
[13] = test system: RAW264.7; assay: Antiinflammatory activity in mouse RAW264.7 cells assessed as reduction in LPS-induced IFN-beta level at 20 uM preincubated with compound for 2 hrs followed by LPS stimulation and measured after 6 hrs by ELISA analysis; type: functional, cell-based; conditions: time 8.0 hrs
[14] = test system: Mus musculus; assay: Antiinflammatory activity against LPS-induced liver injury BALB/c mouse model assessed as reduction in AST level in serum at 1 to 9 mg/kg, ip pretreated with compound for 3 days followed by LPS-induction and measured after 12 hrs; type: functional, organism-based; conditions: dose 1-9 mg/kg, time 3.5 day
[15] = test system: Mus musculus; assay: In-vivo inhibition of STING/IRF3/NF-kappaB activation in liver septic mouse model assessed as reduction in IkappaB-alpha phosphorylation at 1 to 9 mg/kg, ip pretreated with compound for 3 days followed by LPS-induction and measured after 2 hrs by Western blotting analysis; type: functional, organism-based; conditions: dose 1-9 mg/kg, time 74.0 hrs
[16] = test system: Mus musculus; assay: In-vivo inhibition of STING/IRF3/NF-kappaB activation in liver septic mouse model assessed as reduction in TBK phosphorylation at 1 to 9 mg/kg, ip pretreated with compound for 3 days followed by LPS-induction and measured after 2 hrs by Western blotting analysis; type: functional, organism-based; conditions: dose 1-9 mg/kg, time 74.0 hrs
[17] = target: T1, Stimulator of interferon genes protein (Mus musculus); assay: Binding affinity to STING in mouse RAW264.7 cells assessed as thermal stabilization at 49 to 55 degree C at 5 to 50 uM measured for 12 hrs by cellular thermal shift assay; type: cell-based; conditions: filed as modulator, dose 5-50 µM
[18] = test system: Mus musculus; assay: Antiinflammatory activity against LPS-induced liver injury BALB/c mouse model assessed as reduction in IFN-beta level in liver at 1 to 9 mg/kg, ip pretreated with compound for 3 days followed by LPS-induction and measured after 12 hrs; type: functional, organism-based; conditions: dose 1-9 mg/kg, time 3.5 day
[19] = target: T1, Stimulator of interferon genes protein (Mus musculus); assay: Activation of STING signaling pathway in mouse RAW264.7 cells assessed as inhibition of LPS-induced TBK1 phosphorylation at 2.5 to 10 uM pretreated with compound for 2 hrs followed by LPS-induction and measured after 6 hrs by Western blot analysis; type: cell-based; conditions: filed as activator, dose 2.5-10 µM, time 8.0 hrs
[20] = test system: RAW264.7; assay: Antiinflammatory activity in mouse RAW264.7 cells assessed as reduction in LPS-induced TNF-alpha level at 20 uM preincubated with compound for 2 hrs followed by LPS stimulation and measured after 6 hrs by ELISA analysis; type: functional, cell-based; conditions: time 8.0 hrs
[21] = test system: Mus musculus; assay: In-vivo inhibition of STING/IRF3/NF-kappaB activation in liver septic mouse model assessed as reduction in IRF3 phosphorylation at 1 to 9 mg/kg, ip pretreated with compound for 3 days followed by LPS-induction and measured after 2 hrs by Western blotting analysis; type: functional, organism-based; conditions: dose 1-9 mg/kg, time 74.0 hrs
[22] = target: T1, Stimulator of interferon genes protein (Mus musculus); assay: Activation of STING signaling pathway in mouse RAW264.7 cells assessed as inhibition of LPS-induced p65 phosphorylation at 2.5 to 10 uM pretreated with compound for 2 hrs followed by LPS-induction and measured after 6 hrs by Western blot analysis; type: cell-based; conditions: filed as activator, dose 2.5-10 µM, time 8.0 hrs
[23] = test system: Mus musculus; assay: In-vivo inhibition of STING/IRF3/NF-kappaB activation in liver septic mouse model assessed as reduction in STING level at 1 to 9 mg/kg, ip pretreated with compound for 3 days followed by LPS-induction and measured after 2 hrs by Western blotting analysis; type: functional, organism-based; conditions: dose 1-9 mg/kg, time 74.0 hrs

## CC1(C)CC[C@]2(C(=O)NC(Cc3ccccc3)C(=O)O)CC[C@]3(C)C(=CC[C@@H]4[C@@]5(C)Cc6nccnc6[C@@](C)(CO)[C@@H]5CC[C@]43C)[C@@H]2C1 (some centres not stated)
[1]
  Activity: >90%
[2]
  Activity: Active

## CCOC(=O)c1noc2c1C[C@@]1(C)[C@@H](CC[C@]3(C)[C@@H]1CC=C1[C@@H]4CC(C)(C)CC[C@]4(C(=O)OCc4ccccc4)CC[C@]13C)[C@]2(C)CO
[1]
  Activity: >90%

## CC(C)CC(NC(=O)[C@]12CCC(C)(C)C[C@H]1C1=CC[C@@H]3[C@@]4(C)Cc5nccnc5[C@@](C)(CO)[C@@H]4CC[C@@]3(C)[C@]1(C)CC2)C(=O)O (some centres not stated)
[1]
  Activity: >90%

## CC1(C)CC[C@]2(C(=O)N3CCOCC3)CC[C@]3(C)C(=CC[C@@H]4[C@@]5(C)Cc6nccnc6[C@@](C)(CO)[C@@H]5CC[C@]43C)[C@@H]2C1
[1]
  Activity: >90%
[2]
  Activity: Active

## CC1(C)CC[C@]2(C(=O)OCc3ccccc3)CC[C@]3(C)C(=CC[C@@H]4[C@@]5(C)Cc6nccnc6[C@@](C)(COC(=O)CCC(=O)N6CCCC6)[C@@H]5CC[C@]43C)[C@@H]2C1
[1]
  Activity: <90%

## CC1(C)CC[C@]2(C(=O)OCc3ccccc3)CC[C@]3(C)C(=CC[C@@H]4[C@@]5(C)Cc6nccnc6[C@@](C)(COC(=O)CCC(=O)Nc6ncn[nH]6)[C@@H]5CC[C@]43C)[C@@H]2C1
[1]
  Activity: <90%

## Cc1nc2c(s1)C[C@@]1(C)[C@@H](CC[C@]3(C)[C@@H]1CC=C1[C@@H]4CC(C)(C)CC[C@]4(C(=O)O)CC[C@]13C)[C@]2(C)CO
[1]
  Activity: >90%

## CC1(C)CC[C@]2(C(=O)N3CCCC3C(=O)O)CC[C@]3(C)C(=CC[C@@H]4[C@@]5(C)Cc6nccnc6[C@@](C)(CO)[C@@H]5CC[C@]43C)[C@@H]2C1 (some centres not stated)
[1]
  Activity: >90%
[2]
  Activity: Active

## CC1(C)CC[C@]2(C(=O)O)CC[C@]3(C)C(=CC[C@@H]4[C@@]5(C)Cc6nccnc6[C@@](C)(CO)[C@@H]5CC[C@]43C)[C@@H]2C1
[3]
  Activity: Active
[4]
  Activity: Active
[5]
  Activity: Active
[6]
  Activity: Active
[7]
  Activity: Active
[8]
  Activity: Active
[9]
  Activity: Active
[10]
  Activity: Active
[11]
  Activity: Active
[12]
  inhibition: Active
[13]
  Activity: Active
[14]
  Activity: Active
[15]
  inhibition: Active
[16]
  inhibition: Active
[17]
  Activity: Active
[18]
  Activity: Active
[19]
  Activity: Active
[1]
  Activity: >90%
[20]
  Activity: Active
[21]
  inhibition: Active
[2]
  Activity: Active
[22]
  Activity: Active
[23]
  inhibition: Active

## CC1(C)CC[C@]2(C(=O)OCc3ccccc3)CC[C@]3(C)C(=CC[C@@H]4[C@@]5(C)Cc6nccnc6[C@@](C)(COC(=O)CCC(=O)n6nnc7ccccc76)[C@@H]5CC[C@]43C)[C@@H]2C1
[1]
  Activity: <90%

## CC1(C)CC[C@]2(C(=O)OCc3ccccc3)CC[C@]3(C)C(=CC[C@@H]4[C@@]5(C)Cc6nccnc6[C@@](C)(COC(=O)CCC(=O)n6cccn6)[C@@H]5CC[C@]43C)[C@@H]2C1
[1]
  Activity: <90%

## O=C(Nc1ccc(I)cc1)c1ccc([N+](=O)[O-])o1
[3]
  Activity: Active
[4]
  Activity: Active
[5]
  Activity: Active
[6]
  Activity: Active
[8]
  Activity: Active
[9]
  Activity: Active
[11]
  Activity: Active
[12]
  inhibition: Active
[14]
  Activity: Active
[15]
  inhibition: Active
[16]
  inhibition: Active
[18]
  Activity: Active
[19]
  Activity: Active
[21]
  inhibition: Active
[22]
  Activity: Active
[23]
  inhibition: Active

## CN1CCN(C(=O)CCC(=O)OC[C@]2(C)c3nccnc3C[C@@]3(C)[C@H]2CC[C@]2(C)[C@@H]3CC=C3[C@@H]4CC(C)(C)CC[C@]4(C(=O)OCc4ccccc4)CC[C@]32C)CC1
[1]
  Activity: <90%

## CC1(C)CC[C@]2(C(=O)OCc3ccccc3)CC[C@]3(C)C(=CC[C@@H]4[C@@]5(C)Cc6nccnc6[C@@](C)(COC(=O)CCC(=O)N6CCOCC6)[C@@H]5CC[C@]43C)[C@@H]2C1
[1]
  Activity: <90%

## CC1(C)CC[C@]2(C(=O)OCc3ccccc3)CC[C@]3(C)C(=CC[C@@H]4[C@@]5(C)Cc6nccnc6[C@@](C)(COC(=O)CCC(=O)N6CCCCC6)[C@@H]5CC[C@]43C)[C@@H]2C1
[1]
  Activity: >90%
[2]
  Activity: Active

## CCOC(=O)c1noc2c1C[C@@]1(C)[C@@H](CC[C@]3(C)[C@@H]1CC=C1[C@@H]4CC(C)(C)CC[C@]4(C(=O)OCc4ccccc4)CC[C@]13C)[C@]2(C)COC(=O)CCC(=O)O
[1]
  Activity: >90%
